Data published in article PMC10649961, “Novel Mitochondria-Targeted Amphiphilic Aminophosphonium Salts and Lipids Nanoparticles: Synthesis, Antitumor Activity and Toxicity” (Nanomaterials, 2023).

How the values were obtained:
[1] = tested on: Staphylococcus aureus ATCC 6538 P FDA 209P; assay: Antimicrobial activity, serial microdilutions, Sa; format: cell-based; settings: Staphylococcus aureus
Summary of the method: (§1)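 Compounds were serially diluted in broth: Mueller-Hinton for the bacterial strains, Sabouraud for the yeast. Each determination was done in triplicate.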

[2] = tested on: Bacillus cereus ATCC 10702 NCTC 8035; assay: Antimicrobial activity, serial microdilutions, Bc; format: cell-based; settings: Bacillus cereus
Summary of the method: (§2)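 Serial broth microdilution in triplicate; bacteria grown in Mueller-Hinton broth, C. albicans in Sabouraud broth. MRSA-1 is a clinical isolate from a chronic tonsillitis patient.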

[3] = tested on: Enterococcus faecalis ATCC 29212; assay: Antimicrobial activity, serial microdilutions, Ef; format: cell-based; set-up: key to Minimum Inhibitory Concentration (MIC) / Minimum bactericidal and fungicidal concentrations (MBC, MFC): – means non-active
Summary of the method: as §1

MRSA-1 = assay: Antimicrobial activity, serial microdilutions, MRSA-1; format: cell-based, S. aureus; settings: Staphylococcus aureus
Summary of the method: as §2

MRSA-2 = assay: Antimicrobial activity, serial microdilutions, MRSA-2; format: cell-based, S. aureus; settings: Staphylococcus aureus
Summary of the method: as §1

[4] = tested on: Escherichia coli ATCC 25922; assay: Antimicrobial activity, serial microdilutions, Ec; format: cell-based; set-up: key to Minimum Inhibitory Concentration (MIC) / Minimum bactericidal and fungicidal concentrations (MBC, MFC): – means non-active
Summary of the method: as §2

[5] = tested on: Pseudomonas aeruginosa ATCC 9027; assay: Antimicrobial activity, serial microdilutions, Pa; format: cell-based; set-up: key to Minimum Inhibitory Concentration (MIC) / Minimum bactericidal and fungicidal concentrations (MBC, MFC): – means non-active
Summary of the method: as §2

[6] = tested on: Candida albicans ATCC 10231; assay: Antimicrobial activity, serial microdilutions, Ca; format: cell-based; set-up: key to Minimum Inhibitory Concentration (MIC) / Minimum bactericidal and fungicidal concentrations (MBC, MFC): – means non-active; settings: Ca
Summary of the method: as §2

M-HeLa [7] = settings: calculated relative to the cell line WI38 (a)
MCF-7 [8] = settings: calculated relative to the cell line WI38 (a)
HuTu 80 [9] = settings: calculated relative to the cell line WI38 (a)
PANC-1 [10] = settings: calculated relative to the cell line WI38 (a)
A549 [11] = settings: calculated relative to the cell line WI38 (a)
PC3 = settings: calculated relative to the cell line WI38 (a)
T98G [12] = settings: calculated relative to the cell line WI38 (a)
Hep G2 [13] = settings: calculated relative to the cell line WI38 (a)
SK-OV-3 [14] = settings: reference normal cell line not marked at the place (ns cells)
DU-145 [15] = settings: calculated relative to the cell line WI38 (a)
M-HeLa [16] = assay: cells; settings: Homo sapiens, 48 h, read-out: Cytotoxic Effects (IC50)
MCF-7 [17] = assay: cells; settings: Homo sapiens, MCF7, 48 h, read-out: Cytotoxic Effects (IC50)
HuTu 80 [18] = assay: cells; settings: Homo sapiens, HuTu80, 48 h, read-out: Cytotoxic Effects (IC50)
PANC-1 [19] = assay: cells; settings: Homo sapiens, PANC-1, 48 h, read-out: Cytotoxic Effects (IC50)
A549 [20] = assay: cells; settings: Homo sapiens, A549, 48 h, read-out: Cytotoxic Effects (IC50)
T98G [21] = assay: cells; settings: Homo sapiens, 48 h, read-out: Cytotoxic Effects (IC50)
Hep G2 [22] = assay: cells; settings: Homo sapiens, HepG2, 48 h, read-out: Cytotoxic Effects (IC50)
SK-OV-3 [23] = assay: cells; settings: Homo sapiens, SK-OV-3, 48 h, read-out: Cytotoxic Effects (IC50)
DU-145 [24] = assay: cells; settings: Homo sapiens, DU-145, 48 h, read-out: Cytotoxic Effects (IC50), DU-145, MTT assay, 48 h
[25] = read-out: Minimum Inhibitory Concentration (MIC)
[26] = read-out: Minimum bactericidal and fungicidal concentrations (MBC, MFC)

CCCCCCCC[P+](c1ccccc1)(c1ccccc1)c1ccccc1 [compound 8, Octyltriphenylphosphonium iodide, reference compound]
MIC [1, 25]: 0.9 ± 0.07 µM | MBC [1, 26]: 62.5 ± 5.3 µM | MIC ([2]; Bc, read-out: Minimum Inhibitory Concentration (MIC)): 0.9 ± 0.07 µM | MBC [2, 26]: 500 ± 47 µM | Minimum bactericidal and fungicidal concentrations (MBC, MFC) [3]: – | MIC ([3]; Enterococcus faecalis, ATCC29212, read-out: Minimum Inhibitory Concentration (MIC)): 15.6 ± 1.2 µM | MIC (MRSA-1; [25]): 1.9 ± 0.1 µM | MBC (MRSA-1; [26]): 15.6 ± 1.2 µM | MIC (MRSA-2; [25]): 3.9 ± 0.3 µM | MBC (MRSA-2; [26]): 15.6 ± 1.3 µM | Minimum bactericidal and fungicidal concentrations (MBC, MFC) [4]: – | MIC ([4]; Escherichia coli, ATCC25922, read-out: Minimum Inhibitory Concentration (MIC)): 500 ± 47 µM | Minimum Inhibitory Concentration (MIC) [5]: – | Minimum bactericidal and fungicidal concentrations (MBC, MFC) [5]: – | Minimum Inhibitory Concentration (MIC) [6]: – | Minimum bactericidal and fungicidal concentrations (MBC, MFC) [6]: – | selectivity index (SI) (M-HeLa [7]): 20 | selectivity index (SI) (MCF-7 [8]): 2.2 | selectivity index (SI) (HuTu 80 [9]): 102 | selectivity index (SI) (PANC-1 [10]): 31 | selectivity index (SI) (A549 [11]): 1.1 | selectivity index (SI) (PC3): 23 | selectivity index (SI) (T98G [12]): 15 | selectivity index (SI) (Hep G2 [13]): 5.8 | selectivity index (SI) (SK-OV-3 [14]): ns (ns—no selectivity) | selectivity index (SI) (DU-145 [15]): 23 | IC50 (M-HeLa [16]): 450 ± 40 nM | IC50 (MCF-7 [17]): 4200 ± 300 nM | IC50 (HuTu 80 [18]): 90 ± 6 nM | IC50 (PANC-1 [19]): 300 ± 20 nM | IC50 (A549 [20]): 8700 ± 700 nM | IC50 (T98G [21]): 600 ± 50 nM | IC50 (Hep G2 [22]): 1600 ± 100 nM | IC50 (SK-OV-3 [23]): 9800 ± 700 nM | IC50 (DU-145 [24]): 400 ± 30 nM
